# Structures can show the parent of a compound that is named as a salt. Where two headings read alike, the source gives them in different places.
# What was measured:
# β1-AR [1] = biological target: T1, β1-AR (Homo sapiens, UniProt P08588); assay: β-arrestin-2 recruitment assay at β1-AR; format: cell-based; conditions: for β-arrestin-2 recruitment β1-AR Emax: relative to norepinephrine
# Target sequence in this assay (P08588 whole entry): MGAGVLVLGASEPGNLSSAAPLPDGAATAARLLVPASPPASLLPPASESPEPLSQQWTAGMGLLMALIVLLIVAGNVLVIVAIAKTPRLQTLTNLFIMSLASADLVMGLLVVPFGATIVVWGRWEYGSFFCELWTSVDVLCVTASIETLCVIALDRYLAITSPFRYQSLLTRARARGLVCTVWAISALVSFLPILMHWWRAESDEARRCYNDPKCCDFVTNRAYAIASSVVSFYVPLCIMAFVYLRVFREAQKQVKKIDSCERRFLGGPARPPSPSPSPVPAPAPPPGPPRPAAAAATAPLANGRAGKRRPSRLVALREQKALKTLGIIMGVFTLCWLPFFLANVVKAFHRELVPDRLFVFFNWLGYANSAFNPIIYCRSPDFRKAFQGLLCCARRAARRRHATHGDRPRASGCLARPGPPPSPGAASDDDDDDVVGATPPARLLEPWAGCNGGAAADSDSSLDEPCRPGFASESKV
# Target sequence in this assay (P32121 whole entry partner): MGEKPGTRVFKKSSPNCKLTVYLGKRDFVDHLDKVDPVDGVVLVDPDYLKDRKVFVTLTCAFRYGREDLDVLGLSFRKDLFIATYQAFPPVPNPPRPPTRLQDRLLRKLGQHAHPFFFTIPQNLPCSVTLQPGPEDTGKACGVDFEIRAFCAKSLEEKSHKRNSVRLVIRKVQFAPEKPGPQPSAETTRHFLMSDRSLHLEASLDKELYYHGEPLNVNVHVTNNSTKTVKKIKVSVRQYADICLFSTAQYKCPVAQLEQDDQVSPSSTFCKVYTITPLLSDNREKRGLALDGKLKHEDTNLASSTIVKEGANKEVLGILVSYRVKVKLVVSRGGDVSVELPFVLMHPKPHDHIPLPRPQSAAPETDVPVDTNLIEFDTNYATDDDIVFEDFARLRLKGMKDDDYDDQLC
# α2A-AR = biological target: T2, α2A-AR (Homo sapiens, UniProt P08913); assay: radioligand binding assay, α2A-AR, [3H]RX821002; conditions: radioligand [3H]RX821002; values given as a range are from screening experiments with a low number of repeats
# T2 sequence (P08913 1-465): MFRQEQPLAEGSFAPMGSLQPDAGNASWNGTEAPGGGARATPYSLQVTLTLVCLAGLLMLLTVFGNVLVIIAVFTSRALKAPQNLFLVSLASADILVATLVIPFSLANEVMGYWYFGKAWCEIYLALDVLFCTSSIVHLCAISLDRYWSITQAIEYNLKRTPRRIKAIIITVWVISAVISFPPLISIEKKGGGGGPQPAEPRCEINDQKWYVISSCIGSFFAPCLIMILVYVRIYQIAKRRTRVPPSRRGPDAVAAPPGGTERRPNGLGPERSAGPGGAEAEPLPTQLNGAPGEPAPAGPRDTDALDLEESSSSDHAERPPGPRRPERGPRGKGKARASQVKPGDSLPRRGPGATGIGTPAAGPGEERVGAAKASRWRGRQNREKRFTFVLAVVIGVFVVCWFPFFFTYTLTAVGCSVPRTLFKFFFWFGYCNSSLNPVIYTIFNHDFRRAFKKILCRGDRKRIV
# β2-AR [2] = biological target: T3, β2-AR (Homo sapiens, UniProt P07550); assay: radioligand binding assay, β2-AR, [3H]CGP12177; conditions: for Ki: read-out: Ki β2-AR [3H]CGP12177
# Method: (§1) The binding affinities of exemplary compounds of interest at β1AR and β2AR were evaluated in a binding assay.
# Target sequence in this assay (P07550 whole entry): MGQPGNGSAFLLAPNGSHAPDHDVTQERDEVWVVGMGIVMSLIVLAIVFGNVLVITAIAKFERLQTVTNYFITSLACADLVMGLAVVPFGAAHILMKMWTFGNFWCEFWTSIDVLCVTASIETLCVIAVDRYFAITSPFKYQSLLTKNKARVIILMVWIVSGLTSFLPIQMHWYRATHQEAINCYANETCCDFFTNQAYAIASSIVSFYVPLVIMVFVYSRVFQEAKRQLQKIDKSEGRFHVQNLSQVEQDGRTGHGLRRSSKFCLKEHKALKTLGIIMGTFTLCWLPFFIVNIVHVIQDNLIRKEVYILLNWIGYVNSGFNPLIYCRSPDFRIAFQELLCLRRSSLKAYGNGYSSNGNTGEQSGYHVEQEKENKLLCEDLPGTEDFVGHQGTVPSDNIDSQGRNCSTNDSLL
# β2-AR [3] = biological target: T3, β2-AR; assay: β-arrestin-2 recruitment assay at β2-AR; format: cell-based; conditions: for EC50: ranges from screening experiments with a low number of repeats; for β-arrestin-2 recruitment β2-AR Emax: relative to norepinephrine
# Target sequence in this assay (P07550 whole entry): as above
# Target sequence in this assay (P32121 whole entry partner): as the sequence (P32121 whole entry partner) above
# •1A-AR = biological target: T4, •1A-AR (Homo sapiens, UniProt P35348); assay: radioligand binding assay, α1A-AR, [3H]prazosin
# T4 sequence (P35348 1-466): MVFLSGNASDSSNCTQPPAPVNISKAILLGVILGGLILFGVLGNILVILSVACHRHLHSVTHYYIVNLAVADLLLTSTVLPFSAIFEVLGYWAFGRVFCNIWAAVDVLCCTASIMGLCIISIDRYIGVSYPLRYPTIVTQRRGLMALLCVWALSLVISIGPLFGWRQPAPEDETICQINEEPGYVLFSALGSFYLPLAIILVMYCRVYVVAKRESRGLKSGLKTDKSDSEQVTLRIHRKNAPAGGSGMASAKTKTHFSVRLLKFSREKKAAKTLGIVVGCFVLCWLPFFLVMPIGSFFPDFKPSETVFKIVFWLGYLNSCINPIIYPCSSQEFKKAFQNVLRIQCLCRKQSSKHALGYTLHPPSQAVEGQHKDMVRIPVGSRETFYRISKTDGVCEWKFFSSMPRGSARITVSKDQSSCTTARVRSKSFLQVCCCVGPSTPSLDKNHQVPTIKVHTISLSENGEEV
# β1-AR [4] = biological target: T1, β1-AR; assay: radioligand binding assay, β1-AR, [3H]CGP12177; conditions: values given as a range are from screening experiments with a low number of repeats
# Method: as §1
# Target sequence in this assay (P08588 whole entry): as the sequence (P08588 whole entry) above
# [5] = n.d. = could not be determined because of lack of activity, ranges from screening experiments with a low number of repeats, read-out: β-arrestin-2 recruitment β1-AR EC50
# [6] = radioligand [3H]CGP12177, values given as a range are from screening experiments with a low number of repeats
# [7] = n.d. = could not be determined because of lack of activity, read-out: β-arrestin-2 recruitment β2-AR EC50
# [8] = radioligand [3H]CGP12177, read-out: Ki β1-AR [3H]CGP12177
# [9] = radioligand [3H]prazosin, values given as a range are from screening experiments with a low number of repeats, read-out: Ki •1A-AR [3H]prazosin
# [10] = β-arrestin-2 recruitment β2-AR EC50, n.d. = could not be determined because of lack of activity
SMILES,EC50 (β1-AR [1]; [5]),β-arrestin-2 recruitment β1-AR Emax (β1-AR [1]),Ki (α2A-AR),Ki (β2-AR [2]; [6]),EC50 (β2-AR [3]; [7]),β-arrestin-2 recruitment β2-AR Emax (β2-AR [3]),Ki (β1-AR [4]; [8]),Ki (•1A-AR; [9]),Ki (•1A-AR),EC50 (β2-AR [3]; [10]),EC50 (β1-AR [1]),selectivity for β2-AR over β1-AR (β2-AR [2]),Ki (β2-AR [2]),"Ki (β1-AR [4]; Ki β1-AR [3H]CGP12177, radioligand [3H]CGP12177)"
"N[C@@H]1CCc2c(ccc(O)c2O)[C@H]1O [AS446, (5R,6R)-6-amino-5,6,7,8-tetrahydronaphthalene-1,2,5-triol×TFA]",18 µM,56 % norepinephrine,15 µM,0.68 µM,,107 % norepinephrine,16 µM,,18 µM,0.1 µM,,,,
"COCC(COC)N[C@@H]1CCc2c(ccc(O)c2O)[C@H]1O [LM 114, (5R,6R)-6-((1,3-dimethoxypropan-2-yl)amino)-5,6,7,8-tetrahydronaphthalene-1,2,5-triol]",30 to 60 µM,35 % norepinephrine,6 to 12 µM,0.6 to 1.5 µM,0.5 to 1 µM,125 % norepinephrine,40 to 80 µM,10 to 20 µM,,,,,,
"CC(C)N[C@@H]1CCc2c(ccc(O)c2O)[C@H]1O [AS424A, (R,R)-1,5,6-trihydroxy-N-isopropyl-1,2,3,4-tetrahydronaphthalen-2-aminium TFA]",,82 % norepinephrine,71 µM,,,103 % norepinephrine,,,,0.024 µM,1.2 µM,high selectivity,0.032 µM,2.1 µM
"CN[C@@H]1CCc2c(ccc(O)c2O)[C@H]1O [AS443, (5R,6R)-6-(methylamino)-5,6,7,8-tetrahydronaphthalene-1,2,5-triol]",38 µM,60 % norepinephrine,13 µM,0.14 µM,0.026 µM,112 % norepinephrine,38 µM,17 µM,,,,,,
"Oc1ccc2c(c1O)CC[C@@H](NCC1CCC1)[C@@H]2O [LM 110, (5R,6R)-6-((cyclobutylmethyl)amino)-5,6,7,8-tetrahydronaphthalene-1,2,5-triol]",22 µM,25 % norepinephrine,9.9 µM,0.17 µM,,116 % norepinephrine,51 µM,,4 µM,0.079 µM,,,,
"CC(C)(C)CN[C@@H]1CCc2c(ccc(O)c2O)[C@H]1O [LM 117, (5R,6R)-6-(neopentylamino)-5,6,7,8-tetrahydronaphthalene-1,2,5-triol]",10 to 20 µM,17 % norepinephrine,15 to 30 µM,0.25 to 0.7 µM,0.05 to 0.12 µM,116 % norepinephrine,≥ 50 µM,10 to 20 µM,,,,,,
"Oc1ccc2c(c1O)CC[C@@H](NC(CF)CF)[C@@H]2O [LM 103, (5R,6R)-6-((1,3-difluoropropan-2-yl)amino)-5,6,7,8-tetrahydronaphthalene-1,2,5-triol]",12 µM,18 % norepinephrine,53 µM,0.63 µM,0.64 µM,109 % norepinephrine,10 µM,> 100 µM,,,,,,

# Second part, led by results:
EC50 (β1-AR [1]; [5]),β-arrestin-2 recruitment β1-AR Emax (β1-AR [1]),Ki (α2A-AR),Ki (β2-AR [2]; [6]),EC50 (β2-AR [3]; [7]),β-arrestin-2 recruitment β2-AR Emax (β2-AR [3]),Ki (β1-AR [4]; [8]),Ki (•1A-AR; [9]),SMILES,Ki (•1A-AR),EC50 (β2-AR [3]; [10]),EC50 (β1-AR [1]),selectivity for β2-AR over β1-AR (β2-AR [2]),Ki (β2-AR [2]),"Ki (β1-AR [4]; Ki β1-AR [3H]CGP12177, radioligand [3H]CGP12177)"
10 µM,90 % norepinephrine,18 µM,0.097 µM,0.025 µM,111 % norepinephrine,7.5 µM,,"Oc1ccc2c(c1O)CC[C@@H](NCCCF)[C@@H]2O [LM 75, (5R,6R)-6-((3-fluoropropyl)amino)-5,6,7,8-tetrahydronaphthalene-1,2,5-triol]",23 µM,,,,,
3 µM,81 % norepinephrine,30 µM,0.28 µM,0.066 µM,110 % norepinephrine,7 µM,> 90 µM,"Oc1ccc2c(c1O)CC[C@@H](NCCF)[C@@H]2O [LM 80, (5R,6R)-6-((2-fluoroethyl)amino)-5,6,7,8-tetrahydronaphthalene-1,2,5-triol]",,,,,,
25 to 70 µM,40 % norepinephrine,8 to 15 µM,0.2 to 0.5 µM,0.12 to 0.25 µM,119 % norepinephrine,≥ 50 µM,5 to 10 µM,"C[Si](C)(C)CN[C@@H]1CCc2c(ccc(O)c2O)[C@H]1O [LM 118, (5R,6R)-6-(((trimethylsilyl)methyl)amino)-5,6,7,8-tetrahydronaphthalene-1,2,5-triol]",,,,,,
6 to 14 µM,45 % norepinephrine,8 to 15 µM,0.025 to 0.07 µM,0.01 to 0.02 µM,124 % norepinephrine,5 to 12 µM,,"Oc1ccc2c(c1O)CC[C@@H](NCC1CC(F)(F)C1)[C@@H]2O [LM 112, (5R,6R)-6-(((3,3-difluorocyclobutyl)methyl)amino)-5,6,7,8-tetrahydronaphthalene-1,2,5-triol]",5 to 8 µM,,,,,
> 100 µM,20 % norepinephrine,25 to 45 µM,0.6 to 1.5 µM,0.2 to 0.4 µM,115 % norepinephrine,≥ 50 µM,≥ 60 µM,"Oc1ccc2c(c1O)CC[C@@H](NC1COC1)[C@@H]2O [LM 113, (5R,6R)-6-(oxetan-3-ylamino)-5,6,7,8-tetrahydronaphthalene-1,2,5-triol]",,,,,,
